Source: article PMC6533141 (Chemical biology & drug design, 2019)

Experiments:
HAT1 = biological target: T1, HAT1 (Homo sapiens, UniProt O14929); assay: Scintillation proximity assay; type: biochemical; conditions: SPA, 40 nM HAT1, […] H4-20 BTN, 1 µM [3H]AcCoA, 30°C, 20 min; for Ki: calculated from Kiapp (Equation 2); for IC50: calculated from Kiapp (Equation 3)
T1 sequence (O14929 20-341): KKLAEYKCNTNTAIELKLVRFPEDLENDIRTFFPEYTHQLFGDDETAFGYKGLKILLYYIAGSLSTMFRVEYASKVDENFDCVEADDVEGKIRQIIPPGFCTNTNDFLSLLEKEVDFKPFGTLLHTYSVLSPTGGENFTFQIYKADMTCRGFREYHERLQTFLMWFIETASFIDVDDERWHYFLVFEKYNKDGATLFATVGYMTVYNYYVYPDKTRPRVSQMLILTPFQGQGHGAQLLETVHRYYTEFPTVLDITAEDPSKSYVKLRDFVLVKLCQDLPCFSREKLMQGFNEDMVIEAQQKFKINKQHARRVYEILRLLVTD

p300 = conditions: cited from earlier work

## CC(C)(COP(=O)(O)OP(=O)(O)OC[C@H]1O[C@@H](n2cnc3c(N)ncnc32)[C@H](O)[C@@H]1OP(=O)(O)O)[C@@H](O)C(=O)NCCC(=O)NCCS [CoA]
HAT1
  Ki: 14.6 µM
  IC50: 41.5 µM

## CC(=O)N[C@@H](CCCCNC(=O)CSCCNC(=O)CCNC(=O)[C@H](O)C(C)(C)COP(=O)(O)OP(=O)(O)OC[C@H]1O[C@@H](n2cnc3c(N)ncnc32)[C@H](O)[C@@H]1OP(=O)(O)O)C(N)=O [Lys-CoA, Ac-Lys(CoA)-NH2]
HAT1
  Ki: 26.2 µM
  IC50: 74.9 µM
p300
  IC50: 0.5 µM
p300; previous study
  Ki: 0.019 µM
